Experiments:
[1] = literature; cited from earlier work
[2] = tested on: rat myocardial infarction; experiment: microPET imaging of rat myocardial infarction; assay type: in vivo; details: scan 1 h after injection
Source text: Induction of MI was done as previously described by our laboratory. Adult female Sprague-Dawley rats (weight 150-200 g; Charles River Laboratories, Wilmington, Mass.) were used for this study. […] The anesthesia was then maintained with isoflurane (2%). MI was induced by ligation of the left anterior descending coronary artery 2 to 3 mm from the tip of the left auricle with a 7-0 polypropylene suture. […] In the sham operated animals, a suture was placed in the myocardium (without ligating the left coronary artery). Animals were anesthetized with isofluorane (2%) and injected with approximately 1 mCi (37 MBq) of ^64Cu-DOTA-[…]2) via the tail vein and allowed to recover. […] At the time of scanning, animals were anesthesized with isofluorane (2%) and prone positioned on the microPET Concorde R4 rodent model scanning gantry (Siemens A G, Malvern, Pa.). The scanner has a computer-controlled bed and 10.8-cm transaxial and 8-cm axial fields of view (FOV). […] It has no septa and operates exclusively in the 3-dimensional list mode. A 15 minute static acquisition was performed with the mid thorax in the center of the field of view (FOV), and images reconstructed using a filtered back projection algorithm.

[3] = mouse, in vivo
Protocol: A U87MG tumor mouse was intravenously injected with 3.7 MBq of ^18F-FPRGD2. At 1 h after injection, the mouse was sacrificed, the blood, urine, liver, kidneys, and the U87MG tumor were collected and metabolite analysis was carried out as previously reported (J Nucl Med 2006;47: 113-121 and J Nucl Med 2006;47:1172-1180, each of which is incorporated herein by reference for the corresponding discussion). In brief, blood sample was immediately centrifuged for 5 min at 13,200 rpm. Other tissues were homogenized and then centrifuged for 5 min at 13,200 rpm. The supernatant was each passed through a C18 Sep-Pak cartridge. The urine sample was directly diluted with 1 mL of PBS and passed through a C18 Sep-Pak cartridge. The cartridges were each washed with 2 mL of water and eluted with 2 mL of ACN containing 0.1% TFA. The ACN eluent was concentrated and injected onto the analytical HPLC. The eluent was collected with a fraction collector (0.5 min/fraction) and the radioactivity of each fraction was measured with the γ-counter.
The metabolic stability of ^18F-FPTA-RGD2 was evaluated in an athymic nude mouse bearing a U87MG tumor. Sixty min after intravenous injection of 2 MBq of ^18F-FPTA-RGD2, the mouse was sacrificed and relevant organs were harvested. The blood was collected and immediately centrifuged for 5 min at 13,200 rpm. Liver, kidneys and tumor were homogenized and then centrifuged for 5 min at 13,200 rpm. After removal of the supernatants, the pellets were washed with 1 mL PBS. For each sample, supernatants of both centrifugation steps of blood, liver, and kidneys were combined and passed through C18 Sep-Pak cartridges. The urine sample was directly diluted with 1 mL of PBS and passed through a C18 Sep-Pak cartridge. The cartridges were each washed with 2 mL of water and eluted with 2 mL of ACN containing 0.1% TFA. After evaporation of the solvent, the residues were redissolved in 1 mL PBS and were injected onto the analytical HPLC. The eluent was collected with a fraction collector (0.5 min/fraction) and the radioactivity of each fraction was measured with the γ-counter.

stroke rats (dMCAO) = experiment: microPET imaging of dMCAO stroke rats; assay type: in vivo, rat
Source text: Anesthesia for Sprague-Dawley rats (290-350 g) was induced by 5% isoflurane and maintained by 2-3% isoflurane. A ventral midline incision was made and the two CCAs were isolated. Snares were placed around the CCAs and the animal was placed on its right side. A 2 cm vertical scalp incision was made midway between the left eye and ear. The temporalis muscle was bisected and a 2 mm burr hole was made at the junction of the zygomatic arch and squamous bone. The distal MCA was exposed and ligated above the rhinal fissure with a 10-0 suture. The CCA snares were tightened to occlude the CCAs for 2 h. In the permanent MCA occlusion model, both CCAs were then released, while the distal MCA remained occluded.

U87MG tumor-bearing mice = experiment: in vivo; details: mouse
Method in brief: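 microPET of U87MG-bearing mice after tail-vein injection of about 3.7 MBq ^18F-labelled RGD tracer under isoflurane; 30-min dynamic scan from 1 min p.i. plus 5-min static scans at 1–3 h. Tumour ROIs on decay-corrected coronal images, OSEM reconstruction without attenuation or scatter correction, converted to %ID/g.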

| Molecule | log stability constant [1] | myocardial tracer uptake after MI induction [2] | defluoridation [3] | extraction efficiency (radioactivity in the supernatant) [3] | non-retained fraction (activity not trapped on C18 cartridges) [3] | microPET signal in wound and stroke lesion (stroke rats (dMCAO); day 1 after dMCAO) | microPET signal in wound and stroke lesion (stroke rats (dMCAO); day 9 after dMCAO) | residence time for kidneys (U87MG tumor-bearing mice) [h] |
| --- | --- | --- | --- | --- | --- | --- | --- | --- |
| O=C([O-])CN1CCN(CC(=O)[O-])CCN(CC(=O)[O-])CC1.[Ga+3] [Ga-NOTA] | 30.98 | – | – | – | – | – | – | – |
| ^18F-FB-mini-PEG-E[c(RGDyK)]2 [^18F-FPRGD2] | – | significant increase in uptake | No defluoridation was observed | 75-95% | less than 30% | Both wound and the lesion were detectable at day 1 | the signal in the lesion reflecting angiogenesis is remained | 0.016 |

From US20080267882A1, “Imaging compounds, methods of making imaging compounds, methods of imaging, therapeutic compounds, methods of making therapeutic compounds, and methods of therapy” (Stanford University, priority 2007, published 2008)
